Experimental data taken from PubChem BioAssay (NCI).
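Protocol summary: plate cells (96-well), add compound at 5 concentrations, incubate 48 h, interpolate endpoints linearly. GI50 marks 50% less growth. TGI: total growth inhibition.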

What was measured:
Test in all cases: inhibition of tumour cell growth, NCI panel, 48 h
A498 renal = tested on: A498 renal
A549 NSCLC = tested on: A549 NSCLC
ACHN renal = tested on: ACHN renal
CCRF-CEM leukemia = tested on: CCRF-CEM leukemia
COLO 205 colon = tested on: COLO 205 colon
EKVX NSCLC = tested on: EKVX NSCLC
HCC-2998 colon = tested on: HCC-2998 colon
HCT-15 colon = tested on: HCT-15 colon
HL-60(TB) leukemia = tested on: HL-60(TB) leukemia
HOP-62 NSCLC = tested on: HOP-62 NSCLC
HOP-92 NSCLC = tested on: HOP-92 NSCLC
HS 578T breast = tested on: HS 578T breast
HT29 colon = tested on: HT29 colon
IGROV1 ovarian = tested on: IGROV1 ovarian
K-562 leukemia = tested on: K-562 leukemia
KM12 colon = tested on: KM12 colon
LOX IMVI melanoma = tested on: LOX IMVI melanoma
MALME-3M melanoma = tested on: MALME-3M melanoma
MCF7 breast = tested on: MCF7 breast
MDA-MB-231 breast = tested on: MDA-MB-231 breast
MDA-MB-435 = tested on: MDA-MB-435
MOLT-4 leukemia = tested on: MOLT-4 leukemia
NCI-H226 lung = tested on: NCI-H226 lung
NCI-H23 lung = tested on: NCI-H23 lung
NCI-H460 lung = tested on: NCI-H460 lung
NCI-H522 lung = tested on: NCI-H522 lung
NCI/ADR-RES ovarian = tested on: NCI/ADR-RES ovarian
OVCAR-3 ovarian = tested on: OVCAR-3 ovarian
OVCAR-4 ovarian = tested on: OVCAR-4 ovarian
OVCAR-5 ovarian = tested on: OVCAR-5 ovarian
OVCAR-8 ovarian = tested on: OVCAR-8 ovarian
PC-3 prostate = tested on: PC-3 prostate
RPMI-8226 leukemia = tested on: RPMI-8226 leukemia
RXF 393 renal = tested on: RXF 393 renal
SF-268 CNS = tested on: SF-268 CNS
SF-295 CNS = tested on: SF-295 CNS
SF-539 CNS = tested on: SF-539 CNS
SK-MEL-2 melanoma = tested on: SK-MEL-2 melanoma
SK-MEL-28 melanoma = tested on: SK-MEL-28 melanoma
SK-MEL-5 melanoma = tested on: SK-MEL-5 melanoma
SK-OV-3 ovarian = tested on: SK-OV-3 ovarian
SN12C renal = tested on: SN12C renal
SNB-19 CNS = tested on: SNB-19 CNS
SNB-75 CNS = tested on: SNB-75 CNS
SR leukemia = tested on: SR leukemia
SW-620 colon = tested on: SW-620 colon
T-47D breast = tested on: T-47D breast
TK-10 renal = tested on: TK-10 renal
U251 CNS = tested on: U251 CNS
UACC-257 melanoma = tested on: UACC-257 melanoma
UACC-62 melanoma = tested on: UACC-62 melanoma
UO-31 renal = tested on: UO-31 renal

In the case of `CC1=CC(=O)CC(C)(C)[C@@]1(O)/C=C/C(C)=C\C(=O)O`, the GI50 (A498 renal) is reported as 115 nM, the TGI (A498 renal) is reported as 374 nM and the GI50 (A549 NSCLC) is reported as 408 nM. It also gave a TGI (A549 NSCLC) of 3500 nM, a GI50 (ACHN renal) of 489 nM and a TGI (ACHN renal) of 2380 nM. For the same molecule, the GI50 (CCRF-CEM leukemia) was 196 nM, the TGI (CCRF-CEM leukemia) was over 50000 nM and the GI50 (COLO 205 colon) was 204 nM. It also gave a TGI (COLO 205 colon) of 950 nM, a GI50 (EKVX NSCLC) of 250 nM and a TGI (EKVX NSCLC) of 2290 nM. The GI50 (HCC-2998 colon) was 139 nM, the TGI (HCC-2998 colon) was 430 nM and the GI50 (HCT-15 colon) was 153 nM. It also gave a TGI (HCT-15 colon) of 777 nM, a GI50 (HL-60(TB) leukemia) of 127 nM and a TGI (HL-60(TB) leukemia) of 309 nM. For the same molecule, the GI50 (HOP-62 NSCLC) was 159 nM, the TGI (HOP-62 NSCLC) was 1050 nM and the GI50 (HOP-92 NSCLC) was 566 nM. It also gave a TGI (HOP-92 NSCLC) of 2980 nM, a GI50 (HS 578T breast) of 209 nM and a TGI (HS 578T breast) of 1570 nM. It also gave a GI50 (HT29 colon) of 157 nM, a TGI (HT29 colon) of 585 nM and a GI50 (IGROV1 ovarian) of 157 nM. For the same molecule, the TGI (IGROV1 ovarian) was 946 nM, the GI50 (K-562 leukemia) was 164 nM and the TGI (K-562 leukemia) was over 50000 nM. The GI50 (KM12 colon) was 210 nM, the TGI (KM12 colon) was 1560 nM and the GI50 (LOX IMVI melanoma) was 129 nM. It also gave a TGI (LOX IMVI melanoma) of 432 nM, a GI50 (MALME-3M melanoma) of 104 nM and a TGI (MALME-3M melanoma) of 329 nM. For the same molecule, the GI50 (MCF7 breast) was 165 nM, the TGI (MCF7 breast) was 1360 nM and the GI50 (MDA-MB-231 breast) was 1140 nM. The TGI (MDA-MB-231 breast) was 3550 nM, the GI50 (MDA-MB-435) was 182 nM and the TGI (MDA-MB-435) was 738 nM. The GI50 (MOLT-4 leukemia) was 152 nM, the TGI (MOLT-4 leukemia) was over 50000 nM and the GI50 (NCI-H226 lung) was 148 nM. The TGI (NCI-H226 lung) was 499 nM, the GI50 (NCI-H23 lung) was 376 nM and the TGI (NCI-H23 lung) was 2230 nM. It also gave a GI50 (NCI-H460 lung) of 132 nM, a TGI (NCI-H460 lung) of 336 nM and a GI50 (NCI-H522 lung) of 115 nM. For the same molecule, the TGI (NCI-H522 lung) was 359 nM, the GI50 (NCI/ADR-RES ovarian) was 1010 nM and the TGI (NCI/ADR-RES ovarian) was 3760 nM. For the same molecule, the GI50 (OVCAR-3 ovarian) was 148 nM, the TGI (OVCAR-3 ovarian) was 478 nM and the GI50 (OVCAR-4 ovarian) was 131 nM. It also gave a TGI (OVCAR-4 ovarian) of 464 nM, a GI50 (OVCAR-5 ovarian) of 840 nM and a TGI (OVCAR-5 ovarian) of 2980 nM. For the same molecule, the GI50 (OVCAR-8 ovarian) was 527 nM, the TGI (OVCAR-8 ovarian) was 3150 nM and the GI50 (PC-3 prostate) was 347 nM. It also gave a TGI (PC-3 prostate) of 3460 nM, a GI50 (RPMI-8226 leukemia) of 174 nM and a TGI (RPMI-8226 leukemia) of 644 nM. For the same molecule, the GI50 (RXF 393 renal) was 114 nM, the TGI (RXF 393 renal) was 327 nM and the GI50 (SF-268 CNS) was 793 nM. It also gave a TGI (SF-268 CNS) of 2820 nM, a GI50 (SF-295 CNS) of 749 nM and a TGI (SF-295 CNS) of 2320 nM. The GI50 (SF-539 CNS) was 206 nM, the TGI (SF-539 CNS) was 1290 nM and the GI50 (SK-MEL-2 melanoma) was 923 nM. For the same molecule, the TGI (SK-MEL-2 melanoma) was 2310 nM, the GI50 (SK-MEL-28 melanoma) was 172 nM and the TGI (SK-MEL-28 melanoma) was 669 nM. For the same molecule, the GI50 (SK-MEL-5 melanoma) was 111 nM, the TGI (SK-MEL-5 melanoma) was 252 nM and the GI50 (SK-OV-3 ovarian) was 284 nM. It also gave a TGI (SK-OV-3 ovarian) of 2220 nM, a GI50 (SN12C renal) of 894 nM and a TGI (SN12C renal) of 3900 nM. The GI50 (SNB-19 CNS) was 254 nM, the TGI (SNB-19 CNS) was 2280 nM and the GI50 (SNB-75 CNS) was 517 nM. It also gave a TGI (SNB-75 CNS) of 1130 nM, a GI50 (SR leukemia) of 155 nM and a TGI (SR leukemia) of over 50000 nM. The GI50 (SW-620 colon) was 285 nM, the TGI (SW-620 colon) was 2200 nM and the GI50 (T-47D breast) was 340 nM. It also gave a TGI (T-47D breast) of 2220 nM, a GI50 (TK-10 renal) of 471 nM and a TGI (TK-10 renal) of 2740 nM. It also gave a GI50 (U251 CNS) of 224 nM, a TGI (U251 CNS) of 2260 nM and a GI50 (UACC-257 melanoma) of 534 nM. For the same molecule, the TGI (UACC-257 melanoma) was 2520 nM, the GI50 (UACC-62 melanoma) was 545 nM and the TGI (UACC-62 melanoma) was 1370 nM. It also gave a GI50 (UO-31 renal) of 608 nM and a TGI (UO-31 renal) of 2300 nM.
